From ChEMBL document CHEMBL1126344, “Substituted penta- and hexapeptides as potent inhibitors of herpes simplex virus type 2 ribonucleotide reductase” (Bioorg Med Chem Lett, 1992) come the findings set out here.

Assay [1] is described as follows: Inhibitory activity of YAGAVVNDL against Herpes Simplex Virus type 2 (HSV-2) ribonucleotide reductase determined as control. On the set-up: species or system Human alphaherpesvirus 2.
The nature of assay [2]: The compound was tested in vitro for inhibitory activity against Herpes Simplex Virus type 2 ribonucleotide reductase. On the set-up: species or system Human alphaherpesvirus 2.
The subject of another assay is Human alphaherpesvirus 2. Description: Relative potency to that of YAGAVVNDL against Herpes Simplex Virus type 2 ribonucleotide reductase.

Starred links: 1 amine or outer side, 2 acyl side, 3 side chain; linkers in the order of their positions; H or OH if unused. Non-standard residues stand in square brackets, D forms with d. Residues, ends and D or L forms follow the SMILES beside them. *: point of attachment. X1 = O=C([C@H](Cc1ccc(O)cc1)N(Cc1cccc(Oc2ccccc2)c1)[*:1])[*:2]; X2 = O=C([C@H](Cc1ccc(O)cc1)N(c1ccc(-c2ccccc2)cc1)[*:1])[*:2]; X3 = O=C([C@H](Cc1ccc(O)cc1)N(Cc1ccsc1)[*:1])[*:2]; NBnTyr = O=C(O)[C@H](Cc1ccc(O)cc1)NCc1ccccc1; tBuAla = CC(C)(C)C[C@H](N)C(=O)O; Cha = N[C@@H](CC1CCCCC1)C(=O)O; αMeL = CC(C)C[C@](C)(N)C(=O)O; Pyrrolidide = C1CCN(*)C1; Nva = CCC[C@H](N)C(=O)O; NMeEt = CCN(C)*

Broadly, the IC50 is the point on the concentration scale where inhibition reaches its midpoint. With `CCN(C)C(=O)C[C@H](NC(=O)[C@@H](NC(=O)[C@@H](NC(=O)[C@@H](N)Cc1ccc(O)cc1)C(C)C)C(C)C)C(=O)N[C@@H](CC(=O)O)C(=O)N[C@@H](CC(C)C)C(=O)O` (H-YVVD(NMeEt)DL-OH), the IC50 came out at 10 µM in assay [1] and 0.4 µM in assay [2]. In the assay on Human alphaherpesvirus 2, this compound gave a Relative potency of 25.

Take `CC(C)C[C@H](NC(=O)[C@H](CC(=O)O)NC(=O)[C@H](CC(=O)N1CCCC1)NC(=O)[C@@H](NC(=O)[C@@H](NC(=O)[C@@H](N)Cc1ccc(O)cc1)C(C)C)C(C)C)C(=O)O` (H-YVVD(Pyrrolidide)DL-OH): the IC50 stood at 32 µM in assay [1] and 1 µM in assay [2]. Further, in the assay with Human alphaherpesvirus 2, the Relative potency was found to be 32.

`CC(C)[C@H](NC(=O)[C@@H](NC(=O)[C@@H](N)Cc1ccc(O)cc1)C(C)C)C(=O)N[C@@H](CC(N)=O)C(=O)N[C@@H](CC(=O)O)C(=O)N[C@@H](CC1CCCCC1)C(=O)O` (H-YVVND[Cha]-OH): the IC50 was found to be 16 µM in assay [1] and 55 µM in assay [2]. In addition, the Relative potency with Human alphaherpesvirus 2 is 0.29.

Consider `CCC[C@H](NC(=O)[C@H](CC(=O)O)NC(=O)[C@H](CC(N)=O)NC(=O)[C@@H](NC(=O)[C@@H](NC(=O)[C@@H](N)Cc1ccc(O)cc1)C(C)C)C(C)C)C(=O)O` (H-YVVND[Nva]-OH), for which the IC50 in assay [1] came to 25 µM; in assay [2] it was 160 µM. This compound also displayed a Relative potency with Human alphaherpesvirus 2 of 0.16.

Regarding `CC(C)[C@H](NC(=O)[C@@H](NC(=O)[C@@H](N)Cc1ccc(O)cc1)C(C)C)C(=O)N[C@@H](CC(N)=O)C(=O)N[C@@H](CC(=O)O)C(=O)N[C@@H](CC(C)(C)C)C(=O)O` (H-YVVND[tBuAla]-OH), the IC50 in assay [1] amounted to 43 µM; in assay [2] it was 13 µM. This compound also yielded a Relative potency with Human alphaherpesvirus 2 of 3.3.

For `CC(C)C[C@](C)(NC(=O)[C@H](CC(=O)O)NC(=O)[C@H](CC(N)=O)NC(=O)[C@@H](NC(=O)[C@@H](NC(=O)[C@@H](N)Cc1ccc(O)cc1)C(C)C)C(C)C)C(=O)O` (H-YVVND[αMeL]-OH), the concentration for half-maximal inhibition (IC50) was 38 µM in assay [1] and 320 µM in assay [2]. Moreover, the Relative potency in the assay with Human alphaherpesvirus 2 came out at 0.12.

Consider `CC(C)[C@H](NC(=O)[C@H](Cc1ccc(O)cc1)NCc1ccccc1)C(=O)N[C@H](C(=O)N[C@@H](CC(=O)N(C)C)C(=O)N[C@@H](CC(=O)O)C(=O)N[C@@H](CC(C)(C)C)C(=O)O)C(C)C` (H-[NBnTyr]VVD(NMe2)D[tBuAla]-OH), for which the half-maximal inhibitory concentration (IC50) in assay [1] is 18 µM; in assay [2], 0.3 µM. In the assay with Human alphaherpesvirus 2, this compound had a Relative potency of 60.

On to `CC(C)[C@H](NC(=O)[C@H](Cc1ccc(O)cc1)NCc1ccccc1)C(=O)N[C@H](C(=O)N[C@@H](CC(N)=O)C(=O)N[C@@H](CC(=O)O)C(=O)N[C@@H](CC(C)(C)C)C(=O)O)C(C)C` (H-[NBnTyr]VVND[tBuAla]-OH), for which the 50% inhibitory concentration (IC50) in assay [1] was determined as 35 µM; in assay [2] it was 1.5 µM. The compound further returned a Relative potency in the assay on Human alphaherpesvirus 2 of 23.

Consider `CC(C)C[C@H](NC(=O)[C@H](CC(=O)O)NC(=O)[C@H](CC(N)=O)NC(=O)[C@@H](NC(=O)[C@@H](NC(=O)[C@H](Cc1ccc(O)cc1)NCc1cccc(Oc2ccccc2)c1)C(C)C)C(C)C)C(=O)O` (H-[X1]VVNDL-OH), for which the IC50 in assay [1] was determined as 40 µM; in assay [2], 12 µM. For the same compound, the Relative potency in the assay on Human alphaherpesvirus 2 turned out to be 3.3.

For `CC(C)C[C@H](NC(=O)[C@H](CC(=O)O)NC(=O)[C@H](CC(N)=O)NC(=O)[C@@H](NC(=O)[C@@H](NC(=O)[C@H](Cc1ccc(O)cc1)Nc1ccc(-c2ccccc2)cc1)C(C)C)C(C)C)C(=O)O` (H-[X2]VVNDL-OH), the concentration for half-maximal inhibition (IC50) stood at 34 µM in assay [1] and 32 µM in assay [2]. In the assay on Human alphaherpesvirus 2, this compound had a Relative potency of 1.1.

Consider `CC(C)C[C@H](NC(=O)[C@H](CC(=O)O)NC(=O)[C@H](CC(N)=O)NC(=O)[C@@H](NC(=O)[C@@H](NC(=O)[C@H](Cc1ccc(O)cc1)NCc1ccsc1)C(C)C)C(C)C)C(=O)O` (H-[X3]VVNDL-OH), for which the IC50 in assay [1] turned out to be 80 µM; in assay [2], 20 µM. In the assay on Human alphaherpesvirus 2, this compound displayed a Relative potency of 4.
